We go through one molecule from paper PMC10865345, “Multivalent Calixarene Complexation of a Designed Pentameric Lectin” (Biomacromolecules, 2024).

pKd: −log10 of the molar value.

In this assay the target is T1, Pent (designed pentameric 5-bladed β-propeller lectin, 5c2n-N33K).
T1 construct: 47-residue monomer (lacking Met1), homopentamer of ~26 kDa; designed, based on tachylectin-2 (PDB 5C2N)
The experiment in a line: X-ray cocrystal structures (forms I and II); 1H-15N HSQC NMR titration. In kind it is binding, synthetic construct.

Usually pKd stands for the Kd on a negative log10 scale, so that one unit is a factor of ten. As to `O=S(=O)(O)c1cc2c(O)c(c1)Cc1cc(S(=O)(=O)O)cc(c1O)Cc1cc(S(=O)(=O)O)cc(c1O)Cc1cc(S(=O)(=O)O)cc(c1O)Cc1cc(S(=O)(=O)O)cc(c1O)Cc1cc(S(=O)(=O)O)cc(c1O)Cc1cc(S(=O)(=O)O)cc(c1O)Cc1cc(S(=O)(=O)O)cc(c1O)C2` [sclx8, sulfonato-calix[8]arene], the negative logarithm of the Kd (pKd) is > 5.52.
